Assay results as given in US6087376A (priority 1998, dated 2000).

Target: T1, plasma membrane DA transporter (rat striatal synaptosomes) (Rattus norvegicus, UniProt P23977)
T1 construct: from tissue; host or cells: rat striatum, synaptosomes
Assay: [3H]DA uptake assay, striatal synaptosomal preparation
Format: biochemical
Settings: read-out: IC50, inhibition of [3H]DA uptake into synaptosomes
Method: The homogenate was centrifuged at 2,000×g for 10 min at 4° C. […] The final protein concentration was 400 μg/mL. The assay was performed in duplicate in a total volume of 500 μL. […] The incubation continued for 10 min at 34° C. The reaction was terminated by the addition of 3 mL cold assay buffer (without 1 mM catechol). Samples were rapidly filtered through a Whatman GF/B filter using a Brandel cell harvester (model MP-43 RS, Biochemical Research and Development Laboratories, Inc., Gaithersburg, Md.) and the filter was subsequently washed 3 times with 4 mL of cold assay buffer containing 1 mM catechol. Filters were previously soaked for 2 hrs in the cold assay buffer containing 1 mM catechol. […] Filters were placed into scintillation vials, 10 mL of scintillation cocktail was added and radioactivity was determined by scintillation spectrometry.
Inhibition of synaptosomal and vesicular [^3 H]DA uptake were analyzed by repeated-measures, one-way ANOVA, and by an iterative nonlinear least-squares curve-fitting program (GraphPAD-PRIZM; GraphPAD, San Diego, Calif.) to obtain IC50 values. Dunnett's post hoc test was used to compare treatment means to a single control mean. Also, Duncan's New Multiple Range Test or Fisher's LSD post hoc analysis were used to compare pairs of treatment means. […]

T1 sequence (P23977 whole entry): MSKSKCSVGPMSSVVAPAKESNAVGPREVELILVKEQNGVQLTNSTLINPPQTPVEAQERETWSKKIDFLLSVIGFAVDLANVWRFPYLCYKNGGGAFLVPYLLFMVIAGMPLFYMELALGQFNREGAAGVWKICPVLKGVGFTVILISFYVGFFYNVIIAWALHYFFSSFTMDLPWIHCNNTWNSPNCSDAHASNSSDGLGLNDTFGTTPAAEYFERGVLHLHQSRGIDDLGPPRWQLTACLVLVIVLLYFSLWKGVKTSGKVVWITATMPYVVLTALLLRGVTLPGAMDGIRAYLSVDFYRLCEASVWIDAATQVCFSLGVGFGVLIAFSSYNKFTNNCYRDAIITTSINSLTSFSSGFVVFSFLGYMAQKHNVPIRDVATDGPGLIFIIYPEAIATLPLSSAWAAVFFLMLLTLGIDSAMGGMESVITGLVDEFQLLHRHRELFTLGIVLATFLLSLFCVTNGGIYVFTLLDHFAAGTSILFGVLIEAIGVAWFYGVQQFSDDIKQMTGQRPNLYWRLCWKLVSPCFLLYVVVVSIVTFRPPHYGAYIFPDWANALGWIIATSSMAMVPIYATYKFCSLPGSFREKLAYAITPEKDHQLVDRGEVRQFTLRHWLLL

CN1[C@@H](CC(=O)c2ccccc2)CCC[C@H]1C[C@H](O)c1ccccc1 [Lobeline, 2-[G-(β-hydroxyphenethyl)-1-methyl-2-piperidyl]-acetophenone]
IC50: 80 ± 12 µM
